Laboratory results: article PMC3048735 (The Journal of Biological Chemistry, 2011)

Biological target: T1, TryP (TbTryP) (Trypanosoma brucei, UniProt Q71RY2)
T1 sequence (Q71RY2 1-199): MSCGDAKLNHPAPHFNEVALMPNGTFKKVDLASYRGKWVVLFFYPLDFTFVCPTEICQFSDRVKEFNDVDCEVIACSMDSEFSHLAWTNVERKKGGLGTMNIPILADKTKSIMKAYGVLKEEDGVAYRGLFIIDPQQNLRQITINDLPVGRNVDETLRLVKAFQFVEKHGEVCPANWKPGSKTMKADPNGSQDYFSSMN
Test: TryP-limited coupled peroxidase assay, NADPH consumption at […] nm
Format: biochemical

Structure (SMILES): O=C1C=CC(O)(c2nc3ccccc3s2)C=C1 [compound 1, PMX464]
- IC50: 14.1 ± 0.8 µM
